Reference: patent US4738970A, “Benzimidazolyl-thio-tetrahydroquinolines and anti-peptic ulcer compositions containing the same” (Otsuka Pharmaceutical Co., Ltd., priority 1984, dated 1988)
pIC50: −log10 of the molar value.

Biological target: T1, H^+ -K^+ -ATPase (Sus scrofa, UniProt P19156)
T1 construct: which was prepared from the stomach of swine; from tissue; host or cells: stomach of swine
Experiment: Inhibitory Effect Test for the Activity of H^+ -K^+ -ATPase
Format: biochemical
Conditions: H+-K+-ATPase from the stomach of swine; preincubation pH 6.1, room temperature 30 min; reaction pH 7.4, 37° C. 30 min; read-out: IC50 (50% inhibition dosage)
Experimental: H^+ -K^+ -ATPase (hydrogen-potassium-activated adenosine triphosphatase) (protein content: 10 mcg) which was prepared from the stomach of swine was added to PIPES-tris[buffer PIPES-tris(hydroxymethyl)-2-amino-1,3-propanediol buffer (pH=6.1) containing 2 mM of piperazine-N,N'-bis(2-ethanesulfonic acid)], then the resulting mixture was let allowed to stand at room temperature.
Each of the test compounds was dissolved in dimethylformamide, and the dimethylformamide solution was added to the above-mentioned H^+ -K^+ -ATPase buffer solution so as to adjust the final concentration of the test compound to 1.0%. Each of thus prepared mixture was reacted at room temperature for 30 minutes.
Next, the above-mentioned reaction mixture was divided into two portions, and to the one portion thereof was added 1 ml of 75 mM PIPES-tris buffer solution (pH=7.4) (containing 4 mM of MgCl2, 4 mM of Na2 ATP and 20 mM of KCl), on the other hand, to another portion of the reaction mixture was added 1 ml of 75 mM PIPES-tris buffer solution (pH=7.4) (containing 4 mM of MgCl2 and 4 mM of Na2 ATP), respectively. Each of these two series of sample solutions was separately reacted at 37° C. for 30 minutes. Then to each of these reaction mixtures was added 0.3 ml of 40% trichloroacetic acid to terminate the reaction, and was subjected to centrifugal separation at 3,000 rpm for 10 minutes to obtain the supernatent. Next, the inorganic phosphoric acid formed in the reaction mixture was determined by a method according to the article by C. H. Fiske and Y. Subbarow: J. Biol. Chem., Vol. 66, pages 375-400, (1925). The difference of the value obtained by substracting the quantity of inorganic phosphoric acid determined by using PIPES-tris buffer solution without containing 20 mM of KCl from the quantity of inorganic phosphoric acid determined by using PIPES-tris buffer solution containing 20 mM of KCl, was converted into as activity value of enzyme with respect to the unit protein and unit time.
Inhibitory rate (%) of each of the test compounds was obtained from the activity value of the enzyme at the respective dosages in the test groups and those of obtained from the control group, then IC50 (50% inhibition dosage of each of the test compounds) was calculated from the inhibitory rate (%).

T1 sequence (P19156 2-1034 limits assumed): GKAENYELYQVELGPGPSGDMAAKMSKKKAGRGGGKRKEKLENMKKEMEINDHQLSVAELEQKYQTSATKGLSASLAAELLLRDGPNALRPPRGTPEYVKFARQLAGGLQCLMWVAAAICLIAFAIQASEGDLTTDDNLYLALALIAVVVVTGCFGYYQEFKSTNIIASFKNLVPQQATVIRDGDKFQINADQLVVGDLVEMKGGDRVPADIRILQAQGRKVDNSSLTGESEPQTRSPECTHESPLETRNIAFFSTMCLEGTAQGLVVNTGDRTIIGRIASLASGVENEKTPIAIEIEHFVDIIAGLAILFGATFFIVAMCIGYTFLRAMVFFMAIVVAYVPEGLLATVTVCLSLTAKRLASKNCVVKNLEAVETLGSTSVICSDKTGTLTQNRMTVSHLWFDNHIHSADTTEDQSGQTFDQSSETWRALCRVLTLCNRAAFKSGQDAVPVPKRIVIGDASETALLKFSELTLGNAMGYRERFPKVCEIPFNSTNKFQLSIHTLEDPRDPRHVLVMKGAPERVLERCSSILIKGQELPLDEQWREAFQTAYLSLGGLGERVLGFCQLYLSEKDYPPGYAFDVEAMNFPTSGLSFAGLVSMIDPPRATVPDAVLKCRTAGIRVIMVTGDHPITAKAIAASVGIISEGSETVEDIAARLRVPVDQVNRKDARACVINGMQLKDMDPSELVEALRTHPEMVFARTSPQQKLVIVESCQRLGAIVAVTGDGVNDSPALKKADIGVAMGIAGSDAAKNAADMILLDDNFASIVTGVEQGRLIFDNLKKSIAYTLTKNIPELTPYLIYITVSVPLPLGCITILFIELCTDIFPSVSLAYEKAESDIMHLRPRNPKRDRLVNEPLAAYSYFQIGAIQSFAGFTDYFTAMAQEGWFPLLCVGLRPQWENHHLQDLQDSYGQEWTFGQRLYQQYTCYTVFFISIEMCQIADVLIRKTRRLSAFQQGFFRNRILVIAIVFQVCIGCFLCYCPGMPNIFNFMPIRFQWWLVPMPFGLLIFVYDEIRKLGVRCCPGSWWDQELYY
T1 sequence (P18434 whole entry partner): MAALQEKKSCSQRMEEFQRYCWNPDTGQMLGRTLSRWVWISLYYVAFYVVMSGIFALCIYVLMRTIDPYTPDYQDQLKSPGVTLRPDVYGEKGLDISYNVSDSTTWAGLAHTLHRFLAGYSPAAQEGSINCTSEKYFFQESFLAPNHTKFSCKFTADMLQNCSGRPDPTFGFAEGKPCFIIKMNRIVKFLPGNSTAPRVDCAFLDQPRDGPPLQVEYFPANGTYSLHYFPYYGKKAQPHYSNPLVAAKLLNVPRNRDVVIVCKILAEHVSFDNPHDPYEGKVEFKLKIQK

pIC50	Structure (SMILES)
6.13	C=CCOc1c(C)cnc2c1CCCC2[S+]([O-])c1nc2ccccc2[nH]1 (stereo not shown) [Test compound 1, 4-Allyloxy-8-(2-benzimidazolyl)sulfinyl-3-methyl-5,6,7,8-tetrahydroquinoline]
5.74	C=CCOc1c(C)cnc2c1CCCC2[S+]([O-])c1nc2cc(F)c(F)cc2[nH]1 (stereo not shown) [Test compound 2, 4-Allyloxy-8-(5,6-difluoro-2-benzimidazolyl)-sulfinyl-3-methyl-5,6,7,8-tetrahydroquinoline]
5.96	C#CCOc1c(C)cnc2c1CCCC2[S+]([O-])c1nc2ccc(F)cc2[nH]1 (stereo not shown) [Test compound 3, 8-(5-Fluoro-2-benzimidazolyl)sulfinyl-3-methyl-4-propargyloxy-5,6,7,8-tetrahydroquinoline]
6.21	C=CCOc1c(C)cnc2c1CCCC2[S+]([O-])c1nc2cc(C)c(C)cc2[nH]1 (stereo not shown) [Test compound 4, 4-Allyloxy-8-(5,6-dimethyl-2-benzimidazolyl)-sulfinyl-3-methyl-5,6,7,8-tetrahydroquinoline]
6.51	C=CCOc1c(C)cnc2c1CCCC2[S+]([O-])c1nc2cc(Cl)c(Cl)cc2[nH]1 (stereo not shown) [Test compound 5, 4-Allyloxy-8-(5,6-dichloro-2-benzimidazolyl)-sulfinyl-3-methyl-5,6,7,8-tetrahydroquinoline]
6.34	C#CCOc1c(C)cnc2c1CCCC2[S+]([O-])c1nc2cc(C)c(C)cc2[nH]1 (stereo not shown) [Test compound 6, 8-(5,6-Dimethyl-2-benzimidazolyl)sulfinyl-3-methyl-4-propargyloxy-5,6,7,8-tetrahydroquinoline]
5.92	C#CCOc1c(C)cnc2c1CCCC2[S+]([O-])c1nc2ccccc2[nH]1 (stereo not shown) [Test compound 7, 8-(2-Benzimidazolyl)sulfinyl-3-methyl-4-propargyloxy-5,6,7,8-tetrahydroquinoline]
6.54	C#CCOc1c(C)cnc2c1CCCC2[S+]([O-])c1nc2cc(Cl)c(Cl)cc2[nH]1 (stereo not shown) [Test compound 8, 8-(5,6-Dichloro-2-benzimidazolyl)sulfinyl-3-methyl-4-propargyloxy-5,6,7,8-tetrahydroquinoline]
6.08	COCCOc1c(C)cnc2c1CCCC2[S+]([O-])c1nc2ccccc2[nH]1 (stereo not shown) [Test compound 9, 8-(2-Benzimidazolyl)sulfinyl-4-(2-methoxyethoxy)-3-methyl-5,6,7,8-tetrahydroquinoline]
6.06	COCCOc1c(C)cnc2c1CCCC2[S+]([O-])c1nc2ccc(F)cc2[nH]1 (stereo not shown) [Test compound 10, 8-(5-Fluoro-2-benzimidazolyl)sulfinyl-4-(2-methoxyethoxy)-3-methyl-5,6,7,8-tetrahydroquinoline]
6.14	C=CCOc1c(C)cnc2c1CCCC2[S+]([O-])c1nc2ccc(F)cc2[nH]1 (stereo not shown) [Test compound 11, 4-Allyloxy-8-(5-fluoro-2-benzimidazolyl)-sulfinyl-3-methyl-5,6,7,8-tetrahydroquinoline]
5.96	COc1ccc2nc([S+]([O-])C3CCCc4c(C)ccnc43)[nH]c2c1 (stereo not shown) [Test compound 13, 4-Methyl-8-(5-methoxy-2-benzimidazolyl)-sulfinyl-5,6,7,8-tetrahydroquinoline]
5.82	COc1ccc2nc([S+]([O-])C3CCCc4ccc(C)nc43)[nH]c2c1 (stereo not shown) [Test compound 14, 2-Methyl-8-(5-methoxy-2-benzimidazolyl)-sulfinyl-5,6,7,8-tetrahydroquinoline]
5.74	Cc1cnc2c(c1)CCCC2[S+]([O-])c1nc2ccccc2[nH]1 (stereo not shown) [Test compound 15, 3-Methyl-8-(2-benzimidazolyl)sulfinyl-5,6,7,8-tetrahydroquinoline]
5.96	Cc1cnc2c(c1)CCCC2[S+]([O-])c1nc2ccc(C)cc2[nH]1 (stereo not shown) [Test compound 16, 3-Methyl-8-(5-methyl-2-benzimidazolyl)-sulfinyl-5,6,7,8-tetrahydroquinolin]
5.49	CC(=O)c1ccc2nc([S+]([O-])C3CCCc4cc(C)cnc43)[nH]c2c1 (stereo not shown) [Test compound 18, 3-Methyl-8-(5-acetyl-2-benzimidazolyl)-sulfinyl-5,6,7,8-tetrahydroquinoline]
5.51	COc1cc2nc([S+]([O-])C3CCCc4cc(C)cnc43)[nH]c2cc1OC (stereo not shown) [Test compound 19, 3-Methyl-8-(5,6-dimethoxy-2-benzimidazolyl)-sulfinyl-5,6,7,8-tetrahydroquinoline]

pIC50	Structure (SMILES)
5.57	COc1ccc2nc([S+]([O-])C3CCCc4ccc(Cl)nc43)[nH]c2c1 (stereo not shown) [Test compound 21, 2-Chloro-8-(5-methoxy-2-benzimidazolyl)-sulfinyl-5,6,7,8-tetrahydroquinoline]
5.68	COc1ccc2nc([S+]([O-])C3CCCc4cc(C)c(Cl)nc43)[nH]c2c1 (stereo not shown) [Test compound 22, 2-Chloro-3-methyl-8-(5-methoxy-2-benzimidazolyl)sulfinyl-5,6,7,8-tetrahydroquinoline]
5.72	COc1ccc2nc([S+]([O-])C3CCCc4cccnc43)[nH]c2c1 (stereo not shown) [Test compound 23, 8-(5-Methoxy-2-benzimidazolyl)sulfinyl-5,6,7,8-tetrahydroquinoline]
5.12	COc1ccc2nc([S+]([O-])C3CCCc4c(OC)ccnc43)[nH]c2c1 (stereo not shown) [Test compound 24, 4-Methoxy-8-(5-methoxy-2-benzimidazolyl)-sulfinyl-5,6,7,8-tetrahydroquinoline]
5.54	COc1ccnc2c1CCCC2[S+]([O-])c1nc2ccc(C(F)(F)F)cc2[nH]1 (stereo not shown) [Test compound 25, 4-Methoxy-8-(5-trifluoromethyl-2-benzimidazolyl)sulfinyl-5,6,7,8-tetrahydroquinoline]
5.82	Cc1cnc2c(c1)CCCC2[S+]([O-])c1nc2ccc(C(F)(F)F)cc2[nH]1 (stereo not shown) [Test compound 27, 3-Methyl-8-(5-trifluoromethyl-2-benzimidazolyl)sulfinyl-5,6,7,8-tetrahydroquinoline]
5.72	[O-][S+](c1nc2ccc(C(F)(F)F)cc2[nH]1)C1CCCc2cccnc21 (stereo not shown) [Test compound 28, 8-(5-Trifluoromethyl-2-benzimidazolyl)-sulfinyl-5,6,7,8-tetrahydroquinoline]
5.64	COc1ccc2nc([S+]([O-])C3CCCc4ccc(O)nc43)[nH]c2c1 (stereo not shown) [Test compound 29, 2-Hydroxy-8-(5-methoxy-2-benzimidazolyl)-sulfinyl-5,6,7,8-tetrahydroquinoline]
6.03	COc1cc2nc([S+]([O-])C3CCCc4cccnc43)[nH]c2cc1OC (stereo not shown) [Test compound 30, 8-(5,6-Dimethoxy-2-benzimidazolyl)sulfinyl-5,6,7,8-tetrahydroquinoline]
5.54	O=[N+]([O-])c1ccc2nc([S+]([O-])C3CCCc4cccnc43)[nH]c2c1 (stereo not shown) [Test compound 31, 8-(5-Nitro-2-benzimidazolyl)sulfinyl-5,6,7,8-tetrahydroquinoline]
5.59	Cc1cccc2nc([S+]([O-])C3CCCc4cccnc43)[nH]c12 (stereo not shown) [Test compound 33, 8-(4-Methyl-2-benzimidazolyl)sulfinyl-5,6,7,8-tetrahydroquinoline]
6.66	COc1c(C)cnc2c1CCCC2[S+]([O-])c1nc2ccc(F)cc2[nH]1 (stereo not shown) [Test compound 34, 3-Methyl-4-methoxy-8-(5-fluoro-2-benzimidazolyl)sulfinyl-5,6,7,8-tetrahydroquinoline]
6.60	COc1c(C)cnc2c1CCCC2[S+]([O-])c1nc2ccccc2[nH]1 (stereo not shown) [Test compound 35, 3-Methyl-4-methoxy-8-(2-benzimidazolyl)-sulfinyl-5,6,7,8-tetrahydroquinoline]
6.15	[O-][S+](c1nc2cc(Cl)c(Cl)cc2[nH]1)C1CCCc2cccnc21 (stereo not shown) [Test compound 36, 8-(5,6-Dichloro-2-benzimidazolyl)sulfinyl-5,6,7,8-tetrahydroquinoline]
5.47	CCOc1cc2[nH]c([S+]([O-])C3CCCc4cccnc43)nc2cc1F (stereo not shown) [Test compound 37, 8-(5-Ethoxy-6-fluoro-2-benzimidazolyl)-sulfinyl-5,6,7,8-tetrahydroquinoline]
6.47	COc1c(C)cnc2c1CCCC2[S+]([O-])c1nc2cc(C)c(C)cc2[nH]1 (stereo not shown) [Test compound 38, 3-Methyl-4-methoxy-8-(5,6-dimethyl-2-benzimidazolyl)sulfinyl-5,6,7,8-tetrahydroquinoline]
5.53	Cc1cnc2c(c1)C([S+]([O-])c1nc3ccc(C(F)(F)F)cc3[nH]1)CCC2 (stereo not shown) [Test compound 39, 3-Methyl-5-(5-trifluoromethyl-2-benzimidazolyl)sulfinyl-5,6,7,8-tetrahydroquinoline]
